Experimental data from patent publication EP4644383A1 (Jiangsu Yahong Meditech Co., Ltd., priority 2022, dated 2024).
Where two headings read alike, the source gives them in different places.

Legend:
FGFR1 = target: T1, FGFR1 (Homo sapiens, UniProt P11362); test: FGFR1 kinase activity inhibition assay (LanthaScreen TR-FRET); assay type: biochemical
T1 construct: cytoplasmic domain [398-822 (terminal) amino acids]; purchased Carna 08-133
Protocol: (§1) PV3552) and 10 mM EDTA were added to quench the kinase reaction, and incubated at 22°C for 60 minutes. • ⑤ The reaction was measured using a PerkinElmer EnVision multimode plate reader through TR-FRET dual wavelength detection. • 1. The RFU values were copied from the Envision program. • 2. The ratio of RFU 520nm/RFU 495nm was calculated. • 3. The value of the ratio was converted to a percentage inhibition value. % Inhibition = (max-data)/(max-min) × 100 [formula] "Min" represents the ratio of the control without enzyme, "max" represents the ratio of the DMSO control, and "data" represents the ratio of the compounds in wells with different concentrations. […] "Top" refers to the maximum response, "Bottom" refers to the minimum response, and "HillSlope" refers to the slope of the curve.

FGFR3 = target: T2, FGFR3 (Homo sapiens, UniProt P22607); test: FGFR3 kinase activity inhibition assay (LanthaScreen TR-FRET); assay type: biochemical; conditions: for Selectivity (X) FGFR1/FGFR3: ratio of IC50 FGFR1/FGFR3, selectivity towards FGFR3
T2 construct: FGFR3's cytoplasmic domain [436-806 (terminal) amino acids]; purchased Carna 08-135
T2 sequence (P22607 436-806): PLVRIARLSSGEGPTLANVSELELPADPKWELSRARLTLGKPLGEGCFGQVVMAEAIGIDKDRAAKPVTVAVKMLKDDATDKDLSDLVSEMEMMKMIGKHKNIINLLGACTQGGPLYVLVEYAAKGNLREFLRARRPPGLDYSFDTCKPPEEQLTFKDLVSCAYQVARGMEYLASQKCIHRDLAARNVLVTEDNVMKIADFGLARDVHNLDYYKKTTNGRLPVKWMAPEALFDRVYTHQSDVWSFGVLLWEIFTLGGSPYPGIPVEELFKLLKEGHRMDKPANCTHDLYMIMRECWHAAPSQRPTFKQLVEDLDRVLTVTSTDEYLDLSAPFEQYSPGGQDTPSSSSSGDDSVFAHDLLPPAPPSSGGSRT
Protocol: as §1, with “curve. According to the same method as that in the FGFR1 kinase activity inhibition assay, the inhibitory activities against FGFR2, FGFR3 and FGFR4 were tested using FGFR2's cytoplasmic domain [399-821 (terminal) amino acids] (Carna: 08-134), FGFR3's cytoplasmic domain [436-806 (terminal) amino acids] (Carna: 08-135) and FGFR4's cytoplasmic domain [460-802 (terminal) amino acids] (Carna: 08-136), respectively. […]” for “curve.”

[1] = FGFR1 kinase, TR-FRET, read-out: IC50 (nM) FGFR1
[2] = FGFR3 kinase, TR-FRET, read-out: IC50 (nM) FGFR3

T1 sequence (P11362 398-822): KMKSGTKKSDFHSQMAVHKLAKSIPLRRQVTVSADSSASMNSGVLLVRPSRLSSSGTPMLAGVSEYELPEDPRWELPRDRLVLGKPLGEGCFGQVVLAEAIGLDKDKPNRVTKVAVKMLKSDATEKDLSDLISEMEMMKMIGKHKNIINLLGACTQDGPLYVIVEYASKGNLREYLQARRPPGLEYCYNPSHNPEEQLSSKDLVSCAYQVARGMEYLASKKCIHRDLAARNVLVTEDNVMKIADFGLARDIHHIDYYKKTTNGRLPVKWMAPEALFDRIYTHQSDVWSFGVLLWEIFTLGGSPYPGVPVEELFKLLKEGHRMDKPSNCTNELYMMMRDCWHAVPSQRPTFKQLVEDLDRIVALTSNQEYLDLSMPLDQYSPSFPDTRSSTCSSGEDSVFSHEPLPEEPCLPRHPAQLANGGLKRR

Molecule | IC50 (FGFR3; [2]) [nM] | Selectivity (X) FGFR1/FGFR3 (FGFR3) | other results
C[C@@H](Oc1cc(C#N)c2[nH]nc(-c3cnn(C)c3)c2c1)c1c(Cl)cncc1Cl [Example 8] | > 100 | A (A represents 1 ≤ multiple X<20) | IC50 (FGFR1; [1]): > 100 nM
CCCn1cc(-c2n[nH]c3c(F)cc(O[C@H](C)c4c(Cl)cncc4Cl)cc23)cn1 [Example 10] | – | A (A represents 1 ≤ multiple X<20) | IC50 (FGFR1): 10 to 100 nM; IC50 (FGFR3): 1 to 10 nM
C[C@@H](Oc1cc(F)c2[nH]nc(-c3cnn(CCC4CCOCC4)c3)c2c1)c1c(Cl)cncc1Cl [Example 18, (R)-5-(1-(3,5-dichloropyridin-4-yl)ethoxy)-7-fluoro-3-(1-(2-(tetrahydro-2H-pyran-4-yl)ethyl)-1H-pyrazol-4-yl)-1H-indazole] | – | A (A represents 1 ≤ multiple X<20) | IC50 (FGFR1): 1 to 10 nM; IC50 (FGFR3): 1 to 10 nM
COCCOCCn1cc(-c2n[nH]c3c(F)cc(O[C@H](C)c4c(Cl)cncc4Cl)cc23)cn1 [Example 21] | – | A (A represents 1 ≤ multiple X<20) | IC50 (FGFR1): > 100 nM; IC50 (FGFR3): 10 to 100 nM
C[C@@H](Oc1cc(F)c2[nH]nc(-c3cnn(CCN4CCN(C)CC4)c3)c2c1)c1c(Cl)cncc1Cl [Example 22, (R)-5-(1-(3,5-dichloropyridin-4-yl)ethoxy)-7-fluoro-3-(1-(2-(4-methylpiperazin-1-yl)ethyl)-1H-pyrazol-4-yl)-1H-indazole] | 1 to 10 | A (A represents 1 ≤ multiple X<20) | IC50 (FGFR1; [1]): 10 to 100 nM
Cc1ccc2ncccc2c1C(CO)Oc1ccc2[nH]nc(-c3cnn(C)c3)c2c1 (stereo not drawn) [Example 114, 2-((3-(1-methyl-1H-pyrazol-4-yl)-1H-indazol-5-yl)oxy)-2-(6-methylquinolin-5-yl)ethan-1-ol] | > 100 | – | –
Cc1ccc2ncccc2c1C(C)Oc1cnc2[nH]nc(-c3cnn(C)c3)c2c1 (stereo not drawn) [Example 117, 6-methyl-5-(1-((3-(1-methyl-1H-pyrazol-4-yl)-1H-pyrazino[3,4-b]pyridin-5-yl)oxy)ethyl)quinoline] | – | – | IC50 (FGFR3): 10 to 100 nM
Cc1ccc2ncccc2c1C(=O)Oc1ccc2[nH]nc(-c3cnn(C)c3)c2c1 [Example 118] | 10 to 100 | – | –
CC(Oc1ccc2[nH]nc(-c3cnn(C)c3)c2c1)c1csc2ncccc12 (stereo not drawn) [Example 125, 3-(1-((3-(1-methyl-1H-pyrazol-4-yl)-1H-indazol-5-yl)oxy)ethyl)thi eno[2,3-b]pyridine] | 10 to 100 | – | –
CC(Oc1ccc2[nH]nc(-c3ccc(S(C)(=N)=O)nc3)c2c1)c1cccc2nccnc12 (stereo not drawn) [Example 152, imino(methyl)(5-(5-(1-(quinoxalin-5-yl)ethoxy)-1H-indazol-3-yl)pyridin-2-yl)-sulfanone] | 1 to 10 | – | –
CC(Oc1ccc2[nH]nc(-c3cnn(C4CCS(=N)(=O)CC4)c3)c2c1)c1cccc2nccnc12 (stereo not drawn) [Example 154, 1-imino-4-(4-(5-(1-(quinoxalin-5-yl)ethoxy)-1H-indazol-3-yl)-1H-pyrazol-1-yl)hexahydro-thiopyran 1-oxide] | 1 to 10 | – | –
C#Cc1ccc2ncccc2c1C(C)Oc1ccc2[nH]nc(-c3cnn(C)c3)c2c1 (stereo not drawn) [Example 166, 6-ethynyl-5-(1-((3-(1-methyl-lH-pyrazol-4-yl)-1H-indazol-5-yl)oxy)ethyl)quinoline] | – | – | IC50 (FGFR3): 10 to 100 nM
CC(Oc1ccc2[nH]nc(-c3cnn(C)c3)c2c1)c1nc(C#N)cc2nccnc12 (stereo not drawn) [Example 235, 5-(1-((3-(1-methyl-1H-pyrazol-4-yl)-1H-indazol-5-yl)oxy)ethyl)pyridino[3,4-b]pyr azine-7-carbonitrile] | 10 to 100 | – | –

The next lines start with results.

IC50 (FGFR3; [2]) [nM] | Selectivity (X) FGFR1/FGFR3 (FGFR3) | Molecule | other results
< 1 | A (A represents 1 ≤ multiple X<20) | 7-methyl-5-(1-((3-(1-methyl-1H-pyrazol-4-yl)-1H-pyrazino[4,3-b]pyridin-5-yl)oxy)ethyl)pyridi no[3,4-b]pyrazine [Example 204] | IC50 (FGFR1; [1]): 1 to 10 nM
1 to 10 | A (A represents 1 ≤ multiple X<20) | CC(=O)N1CCC(n2cc(-c3n[nH]c4c(F)cc(O[C@H](C)c5c(Cl)cncc5Cl)cc34)cn2)CC1 [Example 13] | IC50 (FGFR1; [1]): 10 to 100 nM
1 to 10 | A (A represents 1 ≤ multiple X<20) | C[C@@H](Oc1cc(F)c2[nH]nc(-c3cnn(CC(N)=O)c3)c2c1)c1c(Cl)cncc1Cl [Example 16, (R)-2-(4-(5-(1-(3,5-dichloropyridin-4-yl)ethoxy)-7-fluoro-1H-indazol-3-yl)-1H-pyrazol-1-yl)acetamide] | IC50 (FGFR1; [1]): 10 to 100 nM
10 to 100 | A (A represents 1 ≤ multiple X<20) | C[C@@H](Oc1cc(F)c2[nH]nc(-c3cnn(CC(=O)N4CCOCC4)c3)c2c1)c1c(Cl)cncc1Cl [Example 19, (R)-2-(4-(5-(1-(3,5-dichloropyridin-4-yl)ethoxy)-7-fluoro-1H-indazol-3-yl)-1H-pyrazol-1-yl)-1-morpholinoetha n-1-one] | IC50 (FGFR1; [1]): 10 to 100 nM
< 1 | A (A represents 1 ≤ multiple X<20) | COCCN(C)CCn1cc(-c2n[nH]c3c(F)cc(O[C@H](C)c4c(Cl)cncc4Cl)cc23)cn1 [Example 20, (R)-2-(4-(5-(1-(3,5-dichloropyridin-4-yl)ethoxy)-7-fluoro-1H-indazol-3-yl)-1H-pyrazol-1-yl)-N-(2-methoxyethyl)-N-methylethan-1-amine] | IC50 (FGFR1; [1]): 1 to 10 nM
> 100 | – | Cc1ccc2ncccc2c1C(C)Sc1ccc2[nH]nc(-c3cnn(C)c3)c2c1 (stereo not drawn) [Example 115, 6-methyl-5-(1-((3-(1-methyl-1H-pyrazol-4-yl)-1H-indazol-5-yl)thio)ethyl)quinoline] | –
> 100 | – | Cc1ccc2ncccc2c1C(Oc1ccc2[nH]nc(-c3cnn(C)c3)c2c1)C(F)(F)F (stereo not drawn) [Example 121, 6-methyl-5-(2,2,2-trifluoro-1-((3-(1-methyl-1H-pyrazol-4-yl)-1H-indazol-5-yl)oxy)ethyl)quinoline] | –
> 100 | – | Cc1ccc(C(C)Oc2ccc3[nH]nc(-c4cnn(C)c4)c3c2)c2cccnc12 (stereo not drawn) [Example 123, 8-methyl-5-(1-((3-(1-methyl-1H-pyrazol-4-yl)-1H-indazol-5-yl)oxy)ethyl)qu inoline] | –
1 to 10 | – | Cc1ccc2ncccc2c1C(C)Oc1cc2c(-c3cnn(C)c3)n[nH]c2cn1 (stereo not drawn) [Example 131] | –
10 to 100 | – | CC(Oc1ccc2[nH]nc(-c3cnn(C)c3)c2c1)c1cc(C(F)(F)F)cc2nccnc12 (stereo not drawn) [Example 137, 5-(1-((3-(1-methyl-1H-pyrazol-4-yl)-1H-indazol-5-yl)oxy)ethyl)-7-(trifluoromethyl)quinoxaline] | –
1 to 10 | – | C#Cc1cc(C(C)Oc2ccc3[nH]nc(-c4cnn(C)c4)c3c2)c2nccnc2c1 (stereo not drawn) [Example 146, 7-ethynyl-5-(1-((3-(1-methyl-1H-pyrazol-4-yl)-1H-indazol-5-yl)oxy)ethyl)quinoxa line] | –
10 to 100 | – | CC(Oc1ccc2[nH]nc(-c3cnn(C)c3)c2c1)c1cc(N(C)C)cc2ncccc12 (stereo not drawn) [Example 151] | –
< 1 | – | CC(Oc1ccc2[nH]nc(-c3ccc(N4CCS(=N)(=O)CC4)nc3)c2c1)c1cccc2nccnc12 (stereo not drawn) [Example 153] | –
1 to 10 | – | CC(Oc1ccc2[nH]nc(-c3cnn(C)c3)c2c1)c1cc(C2CC2)cc2ncccc12 (stereo not drawn) [Example 164, 7-cyclopropyl-5-(1-((3-(1-methyl-1H-pyrazol-4-yl)-1H-indazol-5-yl)oxy)ethyl)qui noline] | –
10 to 100 | – | Cc1ccc2ncccc2c1C(C)Oc1ccc2[nH]nc(-c3cn(C)nn3)c2c1 (stereo not drawn) [Example 165, 6-methyl-5-(1-((3-(1-methyl-1H-1,2,3-triazol-4-yl)-1H-indazol-5-yl)oxy)ethyl)qui noline] | –
10 to 100 | – | CC(Oc1ccc2[nH]nc(-c3cnn(C)c3)c2c1)c1c(Cl)ccc2ncccc12 (stereo not drawn) [Example 167, 6-chloro-5-(1-((3-(1-methyl-1H-pyrazol-4-yl)-1H-indazol-5-yl)oxy)ethyl)qu inoline] | –
10 to 100 | – | CC(Oc1ccc2[nH]nc(-c3cnn(C)c3)c2c1)c1c(C(F)(F)F)ccc2ncccc12 (stereo not drawn) [Example 172, 5-(1-((3-(1-methyl-1H-pyrazol-4-yl)-1H-indazol-5-yl)oxy)ethyl)-6-(trifluoromethyl)quinoline] | –
1 to 10 | – | COc1cc(OC(C)c2nc(C)cc3nccnc23)cc2c(-c3cnn(C)c3)n[nH]c12 (stereo not drawn) [Example 231, 5-(1-((7-methoxy-3-(1-methyl-1H-pyrazol-4-yl)-1H-indazol-5-yl)oxy)ethyl)-7-methylpyrido[3,4-b]pyrazine] | –
